Experiments:
Experiment in all cases: relative viability (nuclei count vs DMSO), 5 days (fraction); higher = more cells survive
NCI-H2009 = test system: NCI-H2009
In short: (§1)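 Each reported value is a median over duplicate plates. It expresses relative viability: treated-well nuclei count divided by vehicle-well nuclei count. Lung cancer cell lines in 1536-well plates were dosed by pin tool a day after seeding, alone with one drug or with a fixed anchor-drug dose plus five library-drug doses (not always all listed) in √10 steps, and nuclei were counted after 5 days.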

NCI-H441 = test system: NCI-H441
In short: as §1

HARA = test system: HARA
In short: as §1

NCI-H1651 = test system: NCI-H1651
In short: as §1

SW 1573 = test system: SW 1573
In short: as §1

LOU-NH91 = test system: LOU-NH91
In short: as §1

NCI-H727 = test system: NCI-H727
In short: as §1

NCI-H23 = test system: NCI-H23
In short: as §1

NCI-H838 = test system: NCI-H838
In short: as §1

NCI-H1975 = test system: NCI-H1975
In short: as §1

LC-2-ad = test system: LC-2-ad
In short: as §1

NCI-H650 = test system: NCI-H650
In short: as §1

UMC-11 = test system: UMC-11
In short: as §1

NCI-H2170 = test system: NCI-H2170
In short: as §1

NCI-H2087 = test system: NCI-H2087
In short: as §1

NCI-H1650 = test system: NCI-H1650
In short: as §1

H3255 = test system: H3255
In short: as §1

NCI-H2228 = test system: NCI-H2228
In short: as §1

SW 900 = test system: SW 900
In short: as §1

NCI-H2085 = test system: NCI-H2085
In short: as §1

EPLC-272H = test system: EPLC-272H
In short: as §1

PC-3 [JPC-3] = test system: PC-3 [JPC-3]
In short: as §1

NCI-H2023 = test system: NCI-H2023
In short: as §1

## Cc1cn(-c2cc(NC(=O)c3ccc(C)c(Nc4nccc(-c5cccnc5)n4)c3)cc(C(F)(F)F)c2)cn1 [Nilotinib] + CC(=O)c1c(C)c2cnc(Nc3ccc(N4CCNCC4)cn3)nc2n(C2CCCC2)c1=O [Palbociclib] (partner 0.5 µM)
NCI-H2009; first compound 0.001 µM
  relative viability: 0.21
NCI-H2009; first compound 0.003162 µM
  relative viability: 0.191
NCI-H2009; first compound 0.01 µM
  relative viability: 0.193
NCI-H2009; first compound 0.03162 µM
  relative viability: 0.211
NCI-H2009; first compound 0.1 µM
  relative viability: 0.191
NCI-H441; first compound 0.001 µM
  relative viability: 0.204
NCI-H441; first compound 0.003162 µM
  relative viability: 0.209
NCI-H441; first compound 0.01 µM
  relative viability: 0.197
NCI-H441; first compound 0.03162 µM
  relative viability: 0.201
NCI-H441; first compound 0.1 µM
  relative viability: 0.192
HARA; first compound 0.001 µM
  relative viability: 0.287
HARA; first compound 0.003162 µM
  relative viability: 0.219
HARA; first compound 0.01 µM
  relative viability: 0.246
HARA; first compound 0.03162 µM
  relative viability: 0.251
HARA; first compound 0.1 µM
  relative viability: 0.225
NCI-H1651; first compound 0.001 µM
  relative viability: 0.555
NCI-H1651; first compound 0.003162 µM
  relative viability: 0.601
NCI-H1651; first compound 0.01 µM
  relative viability: 0.616
NCI-H1651; first compound 0.03162 µM
  relative viability: 0.448
NCI-H1651; first compound 0.1 µM
  relative viability: 0.562
SW 1573; first compound 0.001 µM
  relative viability: 0.391
SW 1573; first compound 0.003162 µM
  relative viability: 0.408
SW 1573; first compound 0.01 µM
  relative viability: 0.363
SW 1573; first compound 0.03162 µM
  relative viability: 0.271
SW 1573; first compound 0.1 µM
  relative viability: 0.32
LOU-NH91; first compound 0.001 µM
  relative viability: 0.51
LOU-NH91; first compound 0.003162 µM
  relative viability: 0.543
LOU-NH91; first compound 0.01 µM
  relative viability: 0.48
LOU-NH91; first compound 0.03162 µM
  relative viability: 0.535
LOU-NH91; first compound 0.1 µM
  relative viability: 0.586
NCI-H727; first compound 0.001 µM
  relative viability: 0.667
NCI-H727; first compound 0.003162 µM
  relative viability: 0.69
NCI-H727; first compound 0.01 µM
  relative viability: 0.71
NCI-H727; first compound 0.03162 µM
  relative viability: 0.593
NCI-H727; first compound 0.1 µM
  relative viability: 0.633
NCI-H23; first compound 0.001 µM
  relative viability: 0.494
NCI-H23; first compound 0.003162 µM
  relative viability: 0.52
NCI-H23; first compound 0.01 µM
  relative viability: 0.512
NCI-H23; first compound 0.03162 µM
  relative viability: 0.443
NCI-H23; first compound 0.1 µM
  relative viability: 0.404
NCI-H838; first compound 0.001 µM
  relative viability: 0.215
NCI-H838; first compound 0.003162 µM
  relative viability: 0.23
NCI-H838; first compound 0.01 µM
  relative viability: 0.188
NCI-H838; first compound 0.03162 µM
  relative viability: 0.198
NCI-H838; first compound 0.1 µM
  relative viability: 0.201
NCI-H1975; first compound 0.001 µM
  relative viability: 0.498
NCI-H1975; first compound 0.003162 µM
  relative viability: 0.608
NCI-H1975; first compound 0.01 µM
  relative viability: 0.653
NCI-H1975; first compound 0.03162 µM
  relative viability: 0.345
NCI-H1975; first compound 0.1 µM
  relative viability: 0.226
LC-2-ad; first compound 0.001 µM
  relative viability: 0.535
LC-2-ad; first compound 0.003162 µM
  relative viability: 0.605
LC-2-ad; first compound 0.01 µM
  relative viability: 0.561
LC-2-ad; first compound 0.03162 µM
  relative viability: 0.466
LC-2-ad; first compound 0.1 µM
  relative viability: 0.502
NCI-H650; first compound 0.001 µM
  relative viability: 0.335
NCI-H650; first compound 0.01 µM
  relative viability: 0.336
NCI-H650; first compound 0.03162 µM
  relative viability: 0.305
NCI-H650; first compound 0.1 µM
  relative viability: 0.333
UMC-11; first compound 0.001 µM
  relative viability: 0.299
UMC-11; first compound 0.003162 µM
  relative viability: 0.296
UMC-11; first compound 0.01 µM
  relative viability: 0.299
UMC-11; first compound 0.03162 µM
  relative viability: 0.374
UMC-11; first compound 0.1 µM
  relative viability: 0.313
NCI-H2170; first compound 0.001 µM
  relative viability: 0.373
NCI-H2170; first compound 0.003162 µM
  relative viability: 0.474
NCI-H2170; first compound 0.01 µM
  relative viability: 0.436
NCI-H2170; first compound 0.03162 µM
  relative viability: 0.379
NCI-H2170; first compound 0.1 µM
  relative viability: 0.44
NCI-H2087; first compound 0.001 µM
  relative viability: 0.219
NCI-H2087; first compound 0.003162 µM
  relative viability: 0.204
NCI-H2087; first compound 0.01 µM
  relative viability: 0.213
NCI-H2087; first compound 0.03162 µM
  relative viability: 0.187
NCI-H2087; first compound 0.1 µM
  relative viability: 0.201
NCI-H1650; first compound 0.001 µM
  relative viability: 0.329
NCI-H1650; first compound 0.003162 µM
  relative viability: 0.402
NCI-H1650; first compound 0.01 µM
  relative viability: 0.324
NCI-H1650; first compound 0.03162 µM
  relative viability: 0.309
NCI-H1650; first compound 0.1 µM
  relative viability: 0.298
H3255; first compound 0.001 µM
  relative viability: 0.317
H3255; first compound 0.003162 µM
  relative viability: 0.286
H3255; first compound 0.01 µM
  relative viability: 0.313
H3255; first compound 0.03162 µM
  relative viability: 0.308
H3255; first compound 0.1 µM
  relative viability: 0.287
NCI-H2228; first compound 0.001 µM
  relative viability: 0.677
NCI-H2228; first compound 0.003162 µM
  relative viability: 0.924
NCI-H2228; first compound 0.01 µM
  relative viability: 0.935
NCI-H2228; first compound 0.03162 µM
  relative viability: 0.395
NCI-H2228; first compound 0.1 µM
  relative viability: 0.406
SW 900; first compound 0.003162 µM
  relative viability: 0.47
SW 900; first compound 0.01 µM
  relative viability: 0.524
SW 900; first compound 0.03162 µM
  relative viability: 0.455
SW 900; first compound 0.1 µM
  relative viability: 0.476
NCI-H2085; first compound 0.001 µM
  relative viability: 0.525
NCI-H2085; first compound 0.003162 µM
  relative viability: 0.489
NCI-H2085; first compound 0.01 µM
  relative viability: 0.536
NCI-H2085; first compound 0.03162 µM
  relative viability: 0.498
NCI-H2085; first compound 0.1 µM
  relative viability: 0.393
EPLC-272H; first compound 0.001 µM
  relative viability: 0.348
EPLC-272H; first compound 0.003162 µM
  relative viability: 0.345
EPLC-272H; first compound 0.03162 µM
  relative viability: 0.291
EPLC-272H; first compound 0.1 µM
  relative viability: 0.39
PC-3 [JPC-3]; first compound 0.001 µM
  relative viability: 0.526
PC-3 [JPC-3]; first compound 0.01 µM
  relative viability: 0.542
PC-3 [JPC-3]; first compound 0.03162 µM
  relative viability: 0.566
PC-3 [JPC-3]; first compound 0.1 µM
  relative viability: 0.518
NCI-H2023; first compound 0.001 µM
  relative viability: 0.395
NCI-H2023; first compound 0.003162 µM
  relative viability: 0.401
NCI-H2023; first compound 0.01 µM
  relative viability: 0.457
NCI-H2023; first compound 0.03162 µM
  relative viability: 0.333
NCI-H2023; first compound 0.1 µM
  relative viability: 0.419

From the supplement of paper PMC10307832
